Results published in patent publication US9090658B2, “Base-substituted benzylamine analogs for use as coagulation factor Xa inhibitors, the production and use thereof” (The Medicines Company (Leipzig) GmbH, priority 2003, dated 2015).

Key:
F Xa = conditions: prior art, literature values; cited from earlier work
factor Xa = molecular target: T1, factor Xa (Bos taurus, UniProt P00743); assay: Determination of the inhibitory constants for factor Xa (chromogenic substrate Moc-D-Nle-Gly-Arg-pNA, Dixon method); format: biochemical, bovine; conditions: for Ki: bovine factor Xa, 25° C., pH 8.0, average of at least three determinations
T1 construct: purchased Diagnostic Reagents Ltd, Thame, GB
T1 sequence (P00743 234-492 limits assumed): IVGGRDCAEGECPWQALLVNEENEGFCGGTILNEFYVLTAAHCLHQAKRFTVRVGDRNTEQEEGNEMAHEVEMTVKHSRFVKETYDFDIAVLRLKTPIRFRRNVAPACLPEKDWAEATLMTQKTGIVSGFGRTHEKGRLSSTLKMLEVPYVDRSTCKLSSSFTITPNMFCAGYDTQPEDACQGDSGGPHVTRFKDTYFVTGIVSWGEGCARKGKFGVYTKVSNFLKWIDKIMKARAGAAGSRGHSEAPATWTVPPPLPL
T1 sequence (P00743 41-180 partner limits assumed): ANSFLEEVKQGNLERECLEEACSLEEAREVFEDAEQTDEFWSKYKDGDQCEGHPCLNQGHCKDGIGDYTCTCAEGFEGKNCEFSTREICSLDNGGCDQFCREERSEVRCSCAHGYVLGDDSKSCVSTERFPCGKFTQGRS
Experimental: Determination of the inhibitory Effect
To determine the inhibitory effect, 200 μl of this buffer (0.05 M 0.154 M NaCl, 5% Ethanol, pH 8.0; contains the inhibitor), 25 μl of substrate (Moc-D-Nle-Gly-Arg-pNA in H2O; Pentapharm Ltd., Basle, Switzerland) and 50 μl of factor Xa (bovine, Diagnostic Reagents Ltd, thame, GB) were incubated at 25° C. After 3 min, the reaction was stopped By adding 25 μl of acetic acid (50%), and the absorption at 405 nm was determined using a Microplate Reader (MR 5000, Dynatech, Denkendorf, Germany). The Ki values were Founder by the Dixon method (boichem. J. 55, 170-171, 1953) by linear regression using a Computer program. The Ki values are the average of at least three determinations. The Thrombin inhibitions was determined in analogy to a method described earlier (Stürzebecher et al., J. Med. Chem. 40, 3091-3099, 1997).

Thrombin = Thrombin (UniProt P00735); assay: Determination of the inhibitory constants for thrombin (method of Stürzebecher et al. 1997); format: biochemical
Source text: The Ki values are the average of at least three determinations.

selectivity ratio SR (SR = Ki thrombin/Ki factor Xa) (factor Xa)	Ki (factor Xa) [nM]	Ki (Thrombin) [nM]	Compound	Ki (F Xa) [nM]
–	–	–	N=C(N)c1ccc(C=C2CCCCC(=Cc3ccc(C(=N)N)cc3)C2=O)cc1 [BABCH]	13
22940	3.4	78000	N=C(N)c1ccc(CNC(=O)[C@H](CCC(=O)O)NC(=O)[C@@H](CCc2ccc(O)cc2)NS(=O)(=O)Cc2ccc(N)cc2)cc1 [Compound 30]	–
543	3.5	1900	N=C(N)c1ccc(CNC(=O)CNC(=O)C(CCc2ccncc2)NS(=O)(=O)Cc2ccc([N+](=O)[O-])cc2)cc1 (stereo not shown) [Compound 31]	–
105	3.6	380	N=C(N)c1ccc(CNC(=O)CNC(=O)[C@@H](CCc2ccccc2)NS(=O)(=O)Cc2ccc(O)cc2)cc1 [Compound 32]	–
27778	3.6	100000	N=C(N)c1ccc(CNC(=O)[C@H](CCC(=O)O)NC(=O)[C@@H](CCc2ccncc2)NS(=O)(=O)Cc2ccc(O)cc2)cc1 [Compound 33]	–
5135	3.7	19000	N=C(N)c1ccc(CNC(=O)[C@H](CCC(=O)O)NC(=O)[C@@H](CCc2ccc(O)cc2)NS(=O)(=O)Cc2ccccc2)cc1 [Compound 34]	–
200	5	1000	CCOC(=O)CC[C@H](NC(=O)[C@@H](CCc1ccc(O)cc1)NS(=O)(=O)Cc1ccccc1)C(=O)NCc1ccc(C(=N)N)cc1 [Compound 35]	–
165	5.2	860	N=C(N)c1ccc(CNC(=O)CNC(=O)[C@@H](CCc2ccc(O)cc2)NS(=O)(=O)Cc2ccc([N+](=O)[O-])cc2)cc1 [Compound 36]	–
6250	5.6	35000	N=C(N)c1ccc(CNC(=O)[C@H](CCC(=O)O)NC(=O)C(CCc2ccncc2)NS(=O)(=O)Cc2ccc([N+](=O)[O-])cc2)cc1 (stereo partly shown) [Compound 37]	–
30	6	180	N=C(N)c1ccc(CNC(=O)[C@H](CCCc2ccccc2)NC(=O)C(CCc2ccncc2)NS(=O)(=O)Cc2ccccc2)cc1 (stereo partly shown) [Compound 38]	–
26	6.4	170	N=C(N)c1ccc(CNC(=O)[C@H](CCC(=O)OCc2ccccc2)NC(=O)C(CCc2ccncc2)NS(=O)(=O)Cc2ccccc2)cc1 (stereo partly shown) [Compound 39]	–
170	6.5	1100	N=C(N)c1ccc(CNC(=O)CNC(=O)[C@@H](/C=C/c2ccccc2)NS(=O)(=O)Cc2ccccc2)cc1 [Compound 40]	–
288	7.2	1500	N=C(N)c1ccc(CNC(=O)CNC(=O)[C@@H](CCc2ccccc2)NS(=O)(=O)Cc2cccc(O)c2)cc1 [Compound 42]	–
2000	7.5	15000	N=C(N)c1ccc(CNC(=O)[C@H](CCC(=O)O)NC(=O)[C@@H](CCc2ccc(O)cc2)NS(=O)(=O)Cc2ccc([N+](=O)[O-])cc2)cc1 [Compound 43]	–
463	8.2	3800	COC(=O)Cc1ccc(CS(=O)(=O)NC(CCc2ccncc2)C(=O)NCC(=O)NCc2ccc(C(=N)N)cc2)cc1 (stereo not shown) [Compound 44]	–
150	9.3	1400	N=C(N)c1ccc(CNC(=O)CNC(=O)[C@@H](CCc2ccccc2)NS(=O)(=O)Cc2cccc(N)c2)cc1 [Compound 45]	–
775	9.8	7600	COC(=O)c1ccc(CS(=O)(=O)NC(CCc2ccncc2)C(=O)NCC(=O)NCc2ccc(C(=N)N)cc2)cc1 (stereo not shown) [Compound 46]	–

selectivity ratio SR (SR = Ki thrombin/Ki factor Xa) (factor Xa)	Ki (factor Xa) [nM]	Ki (Thrombin) [nM]	Compound	Ki (F Xa) [nM]
2923	13	38000	N=C(N)c1ccc(CNC(=O)CNC(=O)C(CCc2ccncc2)NS(=O)(=O)Cc2ccc(CC(=O)O)cc2)cc1 (stereo not shown) [Compound 49]	–
1153	13	15000	N=C(N)c1ccc(CNC(=O)[C@H](CCC(=O)O)NC(=O)[C@@H](CCc2ccccc2)NS(=O)(=O)Cc2ccccc2)cc1 [Compound 50]	–
87	16	1400	CC(C)(C)OC(=O)CC[C@H](NC(=O)[C@@H](CCc1ccncc1)NS(=O)(=O)Cc1ccc([N+](=O)[O-])cc1)C(=O)NCc1ccc(C(=N)N)cc1 [Compound 51]	–
5250	16	84000	N=C(N)c1ccc(CNC(=O)[C@H](CCC(=O)O)NC(=O)[C@@H](CCc2ccncc2)NS(=O)(=O)Cc2ccc(N)cc2)cc1 [Compound 52]	–
27	30	800	N=C(N)c1ccc(CNC(=O)[C@H](CCCC(=O)O)NC(=O)[C@@H](CCc2ccccc2)NS(=O)(=O)Cc2ccccc2)cc1 [Compound 53]	–
18	39	690	CC(C)(C)OC(=O)CC[C@H](NC(=O)[C@@H](CCc1ccc(O)cc1)NS(=O)(=O)Cc1ccc([N+](=O)[O-])cc1)C(=O)NCc1ccc(C(=N)N)cc1 [Compound 54]	–
3	67	210	N=C(N)c1ccc(CNC(=O)CNC(=O)[C@@H](CCCc2ccccc2)NS(=O)(=O)Cc2ccccc2)cc1 [Compound 55]	–
156	83	13000	N=C(N)c1ccc(CNC(=O)[C@H](CCC(=O)O)NC(=O)[C@@H](CCc2ccccc2)NS(=O)(=O)Cc2cccc([N+](=O)[O-])c2)cc1 [Compound 56]	–
3.5	130	460	CC(C)(C)OC(=O)CCC[C@H](NC(=O)[C@@H](CCc1ccccc1)NS(=O)(=O)Cc1ccccc1)C(=O)NCc1ccc(C(=N)N)cc1 [Compound 57]	–
3.1	580	1800	N=C(N)c1ccc(CNC(=O)CNC(=O)[C@@H](C/C=C/c2ccccc2)NS(=O)(=O)Cc2ccccc2)cc1 [Compound 58]	–
16	970	16000	N=C(N)c1ccc(CNC(=O)CNC(=O)[C@@H](CCc2ccccc2)NS(=O)(=O)Cc2cc[n+]([O-])cc2)cc1 [Compound 59]	–
730	4.8	3500	N=C(N)c1ccc(CNC(=O)CNC(=O)C(CCc2cc[n+]([O-])cc2)NS(=O)(=O)Cc2ccccc2)cc1 (stereo not shown) [Compound 60]	–
250	6.8	1700	N=C(N)c1ccc(CNC(=O)[C@H](CCC(=O)NCc2ccccc2)NC(=O)[C@@H](CCc2ccncc2)NS(=O)(=O)Cc2ccccc2)cc1 [Compound 61]	–
1.2	1060	1300	CS(=O)(=O)N[C@H](CCc1ccccc1)C(=O)NCC(=O)NCc1ccc(C(=N)N)cc1 [Compound 62]	–
2.4	620	1500	CC(C)(C)OC(=O)CN[C@H](CCc1ccccc1)C(=O)NCC(=O)NCc1ccc(C(=N)N)cc1 [Compound 63]	–
32	870	28000	N=C(N)c1ccc(CNC(=O)CNC(=O)[C@@H](CCc2ccccc2)NCC(=O)O)cc1 [Compound 64]	–
833	120	100000	Nc1ccc(CNC(=O)CNC(=O)C(CCc2ccncc2)NS(=O)(=O)Cc2ccccc2)cn1 (stereo not shown) [Compound 65]	–
